This data set is described as follows: Toxicity in naive mouse assessed as drug tolerance at 20 mg/kg, sc administered as single dose every 4 hrs for 24 hrs. Type of data set: organism-based. The conditions noted are these: in vivo.

Data on one sequence can be found in ChEMBL document CHEMBL5518181, “Studies of antibacterial activity (in vitro and in vivo) and mode of action for des-acyl tridecaptins (DATs)” (Eur J Med Chem, 2024).

For the sequence COLISTIN, the Activity entry is reported as “Non-Toxic”.
